# In US8586755B2, “Substituted nicotinamides as KCNQ2/3 modulators” (Grünenthal GmbH, priority 2009, dated 2013):
# Biological target: T1, KCNQ2/3 channels (Homo sapiens, UniProt O43525+O43526)
# T1 construct: expressed in transfected cells
# Assay: Fluorescence assay using a voltage sensitive dye (fluorimetry)
# Assay type: cell-based
# Settings: CHO-K1 cells expressing KCNQ2/3 channels; for EC50: agonistic activity; for Emax / Fluorimetry % efficacy (retigabine 50 μM = 100%): retigabine 50 μM = 100%; for Emax: read-out: Fluorimetry % efficacy (retigabine 50 μM = 100%)
# Description: Pharmacological Experiments Fluorescence Assay Using a Voltage Sensitive Dye
# […] CHO-K1 cells expressing KCNQ2/3 channels are cultivated adherently at 37° C., 5% CO2 and 95% humidity in cell culture bottles (e.g. 80 cm^2 TC flasks, Nunc) with DMEM-high glucose (Sigma Aldrich, D7777) including 10% FCS (PAN Biotech, e.g. 3302-P270521) or alternatively MEM Alpha Medium (1×, liquid, Invitrogen, #22571), 10% fetal calf serum (FCS) (Invitrogen, #10270-106, heat-inactivated) and the necessary selection antibiotics.
# Before being sown out for the measurements, the cells are washed with a 1×DPBS buffer without Ca^2+/Mg^2+ (e.g. Invitrogen, #14190-094) and detached from the bottom of the culture vessel by means of Accutase (PAA Laboratories, #L11-007) (incubation with Accutase for 15 min at 37° C.). The cell count then present is determined using a CASY™ cell counter (TCC model, Schärfe System) in order subsequently to apply, depending on the density optimization for the individual cell line, 20,000-30,000 cells/well/100 μl of the described nutrient medium to 96-well measuring plates of the Corning™ CellBIND™ type (Flat Clear Bottom Black Polystyrene Microplates, #3340). Incubation is then carried out for one hour at room temperature, without gassing or adjusting the humidity, followed by incubation for 24 hours at 37° C., 5% CO2 and 95% humidity.
# The voltage-sensitive fluorescent dye from the Membrane Potential Assay Kit (Red™ Bulk format part R8123 for FLIPR, MDS Analytical Technologies™) is prepared by dissolving the contents of a vessel Membrane Potential Assay Kit Red Component A in 200 ml of extracellular buffer (ES buffer, 120 mM NaCl, 1 mM KCl, 10 mM HEPES, 2 mM CaCl2, 2 mM MgCl2, 10 mM glucose; pH 7.4). After removal of the nutrient medium, the cells are washed with 200 μl of ES buffer, then covered with a layer of 100 μl of the dye solution prepared above and incubated for 45 min at room temperature with the exclusion of light.
# The fluorescence measurements are carried out with a BMG Labtech FLUOstar™ BMG Labtech NOVOstar™ or BMG Labtech POLARstar™ instrument (525 nm excitation, 560 nm emission, Bottom Read mode). After incubation of the dye, 50 μl of the test substances in the desired concentrations, or 50 μl of ES buffer for control purposes, are introduced into separate cavities of the measuring plate and incubated for 30 min at room temperature while being shielded from light. The fluorescence intensity of the dye is then measured for 5 min and the fluorescence value F1 of each well is thus determined at a given, constant time. 15 μl of a […] KCl solution ([…]) are then added to each well. The change in fluorescence is subsequently measured until all the relevant measured values have been obtained (mainly 5-30 min). At a given time after KCl application, a fluorescence value F2 is determined, in this case at the time of the fluorescence peak.
# For calculation, the fluorescence intensity F2 is compared with the fluorescence intensity F1, and the agonistic activity of the target compound on the potassium channel is determined therefrom. F2 and F1 are calculated as follows: […]
# In order to determine whether a substance has agonistic activity,
# A substance has an agonistic activity on the potassium channel when
# [formula] it is possible to conclude that a target compound has agonistic activity if an increase in
# [formula] is to be observed as the dosage of the target compound increases.
# Calculations of EC50 values are carried out with the aid of ‘Prism v4.0’ software (GraphPad Software™).
EC50,Emax,Fluorimetry % efficacy (retigabine 50 μM = 100%),Compound
74 nM,89%,–,"O=C(NCc1ccc(Cl)s1)c1cccnc1SCCCc1ccc(F)cc1 [compound 37, N-[(5-Chloro-thiophen-2-yl)-methyl]-2-[3-(4-fluorophenyl)-propylsulfanyl]-pyridine-3-carboxylic acid amide]"
1610 nM,224%,–,"CCCCCCSc1ncccc1C(=O)NCC1CC2CCC1C2 (stereo not drawn) [compound 45, N-(5-Bicyclo[2.2.1]heptanyl-methyl)-2-(hexylsulfanyl)-pyridine-3-carboxylic acid amide]"
672 nM,238%,–,"O=C(NCC1CC2CCC1C2)c1cccnc1SCCOc1ccccc1 (stereo not drawn) [compound 46, N-(5-Bicyclo[2.2.1]heptanyl-methyl)-2-(2-phenoxy-ethylsulfanyl)-pyridine-3-carboxylic acid amide]"
252 nM,83%,–,"COc1ccc(CNC(=O)c2cccnc2SCCCc2ccc(F)cc2)cc1 [compound 57, 2-[3-(4-Fluorophenyl)-propylsulfanyl]-N-[(4-methoxyphenyl)-methyl]-pyridine-3-carboxylic acid amide]"
3880 nM,–,174%,O=C(NCC1CC2CCC1C2)c1cccnc1SCCCc1ccc(O)cc1 (stereo not drawn) [compound 58]
210 nM,83%,–,"O=C(NCc1cccc(C(F)(F)F)c1)c1cccnc1SCCCc1ccc(F)cc1 [compound 59, 2-[3-(4-Fluorophenyl)-propylsulfanyl]-N-[[3-(trifluoromethyl)phenyl]-methyl]-pyridine-3-carboxylic acid amide]"
34 nM,72%,–,"O=C(NCc1ccccc1F)c1cccnc1SCCCc1ccc(F)cc1 [compound 63, N-[(2-Fluorophenyl)-methyl]-2-[3-(4-fluorophenyl)-propylsulfanyl]-pyridine-3-carboxylic acid amide]"
49 nM,100%,–,"O=C(NCc1cccc(F)c1)c1cccnc1SCCCc1ccc(F)cc1 [compound 64, N-[(3-Fluorophenyl)-methyl]-2-[3-(4-fluorophenyl)-propylsulfanyl]-pyridine-3-carboxylic acid amide]"
50 nM,121%,–,"O=C(NCc1ccccc1)c1cccnc1SCCCc1ccc(F)cc1 [compound 66, N-Benzyl-2-[3-(4-fluorophenyl)-propylsulfanyl]-pyridine-3-carboxylic acid amide]"

# The remaining lines, values behind:
Compound,EC50,Emax,Fluorimetry % efficacy (retigabine 50 μM = 100%)
"O=C(NCc1cc(F)cc(F)c1)c1cccnc1SCCCc1ccc(F)cc1 [compound 36, N-[(3,5-Difluoro-phenyl)-methyl]-2-[3-(4-fluorophenyl)-propylsulfanyl]-pyridine-3-carboxylic acid amide]",45 nM,78%,–
"CC1(C)CC1CNC(=O)c1cccnc1SCCCc1ccc(F)cc1 (stereo not drawn) [compound 38, N-[(2,2-Dimethyl-cyclopropyl)-methyl]-2-[3-(4-fluorophenyl)-propylsulfanyl]-pyridine-3-carboxylic acid amide]",144 nM,176%,–
"O=C(NCC1CC2CCC1C2)c1cccnc1SCCCc1cccc(F)c1 (stereo not drawn) [compound 39, N-(5-Bicyclo[2.2.1]heptanyl-methyl)-2-[3-(3-fluorophenyl)-propylsulfanyl]-pyridine-3-carboxylic acid amide]",250 nM,250%,–
"O=C(NCC1CCCCCC1)c1cccnc1SCCCc1ccc(F)cc1 [compound 41, N-(Cycloheptyl-methyl)-2-[3-(4-fluorophenyl)-propylsulfanyl]-pyridine-3-carboxylic acid amide]",157 nM,159%,–
CC(C)(C)CCNC(=O)c1cccnc1SCCCc1ccc(F)cc1 [compound 42],128 nM,–,164%
"O=C(CCSc1ncccc1C(=O)NCC1CC2CCC1C2)c1ccc(F)cc1 (stereo not drawn) [compound 43, N-(5-Bicyclo[2.2.1]heptanyl-methyl)-2-[[3-(4-fluorophenyl)-3-oxo-propyl]sulfanyl]-pyridine-3-carboxylic acid amide]",896 nM,46%,–
"O=C(CCSc1ncccc1C(=O)NCC1CC2CCC1C2)c1ccccc1 (stereo not drawn) [compound 44, N-(5-Bicyclo[2.2.1]heptanyl-methyl)-2-[(3-oxo-3-phenyl-propyl)sulfanyl]-pyridine-3-carboxylic acid amide]",2960 nM,167%,–
"O=C(NCC1CC2CCC1C2)c1cccnc1SCCOc1cccc(C(F)(F)F)c1 (stereo not drawn) [compound 47, N-(5-Bicyclo[2.2.1]heptanyl-methyl)-2-[2-[3-(trifluoromethyl)-phenoxy]-ethylsulfanyl]-pyridine-3-carboxylic acid amide]",218 nM,183%,–
"O=C(NCCC(F)(F)F)c1cccnc1SCCCc1ccc(F)cc1 [compound 48, 2-[3-(4-Fluorophenyl)-propylsulfanyl]-N-(3,3,3-trifluoro-propyl)-pyridine-3-carboxylic acid amide]",148 nM,183%,–
"O=C(NCC1CC2CCC1C2)c1cccnc1SCCOc1ccc(F)cc1 (stereo not drawn) [compound 49, N-(5-Bicyclo[2.2.1]heptanyl-methyl)-2-[2-(4-fluoro-phenoxy)-ethylsulfanyl]-pyridine-3-carboxylic acid amide]",231 nM,174%,–
O=C(NCC1CC2CCC1C2)c1cccnc1SCCC(O)c1ccc(F)cc1 (stereo not drawn) [compound 50],1490 nM,–,169%
"O=C(NCC1CC2CCC1C2)c1cccnc1SCCCc1cccc2ccccc12 (stereo not drawn) [compound 52, N-(5-Bicyclo[2.2.1]heptanyl-methyl)-2-(3-naphthalen-1-yl-propylsulfanyl)-pyridine-3-carboxylic acid amide]",496 nM,190%,–
"O=C(NCC1CCCCCCC1)c1cccnc1SCCCc1ccc(F)cc1 [compound 55, N-(Cyclooctyl-methyl)-2-[3-(4-fluorophenyl)-propylsulfanyl]-pyridine-3-carboxylic acid amide]",227 nM,149%,–
"COc1ccc(CCCSc2ncccc2C(=O)NCC2CC3CCC2C3)cc1 (stereo not drawn) [compound 56, N-(5-Bicyclo[2.2.1]heptanyl-methyl)-2-[3-(4-methoxyphenyl)-propylsulfanyl]-pyridine-3-carboxylic acid amide]",1010 nM,251%,–
"O=C(NCC1CC2CCC1C2)c1cccnc1SCCCc1ccc(F)c(F)c1 (stereo not drawn) [compound 60, N-(5-Bicyclo[2.2.1]heptanyl-methyl)-2-[3-(3,4-difluoro-phenyl)-propylsulfanyl]-pyridine-3-carboxylic acid amide]",263 nM,236%,–
"O=C(NCC1CC2CCC1C2)c1cccnc1SCCCc1cc(F)cc(F)c1 (stereo not drawn) [compound 61, N-(5-Bicyclo[2.2.1]heptanyl-methyl)-2-[3-(3,5-difluoro-phenyl)-propylsulfanyl]-pyridine-3-carboxylic acid amide]",221 nM,283%,–
"O=C(NCC1CC2CCC1C2)c1cccnc1SCCCc1ccc(F)cc1F (stereo not drawn) [compound 62, N-(5-Bicyclo[2.2.1]heptanyl-methyl)-2-[3-(2,4-difluoro-phenyl)-propylsulfanyl]-pyridine-3-carboxylic acid amide]",182 nM,274%,–
"CC(CCc1ccccc1)Sc1ncccc1C(=O)NCC1CC2CCC1C2 (stereo not drawn) [compound 67, N-(5-Bicyclo[2.2.1]heptanyl-methyl)-2-[(1-methyl-3-phenyl-propyl)sulfanyl]-pyridine-3-carboxylic acid amide]",113 nM,290%,–
